Test results published in ChEMBL document CHEMBL3882724 (2013).
pIC50: −log10 of the molar value.

Experiments:
[1] = molecular target: T1, Steroid 17-alpha-hydroxylase/17,20 lyase (Homo sapiens, UniProt P05093); assay: Inhibition of CYP17 in human testicular microsomes using 17alpha-hydroxypregnenolone as substrate assessed as decrease in DHEA levels after 90 mins by ELISA; set-up: species or system Testis
T1 sequence (P05093 whole entry): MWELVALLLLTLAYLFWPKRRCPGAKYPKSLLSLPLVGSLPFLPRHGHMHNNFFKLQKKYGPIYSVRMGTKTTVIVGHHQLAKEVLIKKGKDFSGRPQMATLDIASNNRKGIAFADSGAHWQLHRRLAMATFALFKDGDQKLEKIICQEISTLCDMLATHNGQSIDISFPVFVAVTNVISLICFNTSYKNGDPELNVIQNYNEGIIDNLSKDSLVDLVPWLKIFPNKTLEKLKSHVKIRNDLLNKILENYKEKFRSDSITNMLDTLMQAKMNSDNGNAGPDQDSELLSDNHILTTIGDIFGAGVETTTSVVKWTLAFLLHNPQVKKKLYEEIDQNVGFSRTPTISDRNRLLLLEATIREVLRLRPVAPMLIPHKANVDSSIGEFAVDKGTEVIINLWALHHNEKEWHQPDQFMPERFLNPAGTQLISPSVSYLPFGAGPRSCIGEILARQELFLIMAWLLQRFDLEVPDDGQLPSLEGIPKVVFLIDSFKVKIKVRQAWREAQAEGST

[2] = molecular target: T1, Steroid 17-alpha-hydroxylase/17,20 lyase; assay: Inhibition of CYP17 in human testicular microsomes using 17alpha-hydroxypregnenolone as substrate assessed as decrease in DHEA levels at 10 nM after 90 mins by ELISA relative to control; set-up: species or system Testis; settings: 1.5 h
[3] = Half life in rat liver microsomes at 1 uM by LC-MS/MS analysis
[4] = Half life in human liver microsomes at 1 uM by LC-MS/MS analysis
CYP11B = molecular target: T2, CYP11B (Rattus norvegicus, UniProt P15393+P30099); assay: Inhibition of Sprague-Dawley rat adrenal mitochondrial CYP11B assessed as decrease in conversion of 11-deoxycortisol to cortisol at 100 nM incubated for 60 mins by ELISA relative to control; type: protein assay; settings: adrenal mitochondria, probe 11-deoxycortisol
T2 sequence (P30099 whole entry): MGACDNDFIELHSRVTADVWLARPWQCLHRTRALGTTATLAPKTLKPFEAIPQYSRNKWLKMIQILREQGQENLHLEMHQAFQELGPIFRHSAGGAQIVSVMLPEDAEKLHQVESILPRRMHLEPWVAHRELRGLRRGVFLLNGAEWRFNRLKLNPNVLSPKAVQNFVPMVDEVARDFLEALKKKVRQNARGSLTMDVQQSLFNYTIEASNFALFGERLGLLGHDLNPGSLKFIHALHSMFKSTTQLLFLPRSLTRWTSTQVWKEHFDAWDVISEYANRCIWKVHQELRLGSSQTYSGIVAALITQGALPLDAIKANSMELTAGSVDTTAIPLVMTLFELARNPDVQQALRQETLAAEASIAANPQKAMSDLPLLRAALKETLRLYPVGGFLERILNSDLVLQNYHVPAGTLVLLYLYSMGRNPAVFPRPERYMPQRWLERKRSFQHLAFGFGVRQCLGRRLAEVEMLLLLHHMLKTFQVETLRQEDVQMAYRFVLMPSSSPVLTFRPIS
T2 sequence (P15393 whole entry): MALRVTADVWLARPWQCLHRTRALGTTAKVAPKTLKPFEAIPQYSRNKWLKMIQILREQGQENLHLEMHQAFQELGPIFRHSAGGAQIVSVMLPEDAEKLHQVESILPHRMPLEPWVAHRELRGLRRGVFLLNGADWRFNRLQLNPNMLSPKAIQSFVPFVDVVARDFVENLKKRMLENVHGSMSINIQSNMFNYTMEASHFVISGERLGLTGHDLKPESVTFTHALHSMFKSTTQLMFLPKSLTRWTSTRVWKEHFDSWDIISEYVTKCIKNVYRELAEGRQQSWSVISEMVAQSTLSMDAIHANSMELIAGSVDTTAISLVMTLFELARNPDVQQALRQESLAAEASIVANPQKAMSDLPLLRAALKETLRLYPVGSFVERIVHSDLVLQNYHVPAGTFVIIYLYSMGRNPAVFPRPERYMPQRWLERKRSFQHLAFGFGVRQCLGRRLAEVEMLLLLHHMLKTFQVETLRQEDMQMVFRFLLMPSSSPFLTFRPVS

[5] = molecular target: T3, CYP21 (steroid 21-hydroxylase) (Homo sapiens, UniProt P08686); assay: Inhibition of human CYP21 transfected in HEK293 cells assessed as decrease in conversion of progesterone to 11-deoxycorticosterone preincubated for 5 hrs followed by progesterone addition measured after 20 hrs by ELISA; type: cell-based; set-up: concentration or dose not given beside the values; settings: HEK293 cells transfected with human CYP21, probe progesterone
T3 sequence (P08686 whole entry): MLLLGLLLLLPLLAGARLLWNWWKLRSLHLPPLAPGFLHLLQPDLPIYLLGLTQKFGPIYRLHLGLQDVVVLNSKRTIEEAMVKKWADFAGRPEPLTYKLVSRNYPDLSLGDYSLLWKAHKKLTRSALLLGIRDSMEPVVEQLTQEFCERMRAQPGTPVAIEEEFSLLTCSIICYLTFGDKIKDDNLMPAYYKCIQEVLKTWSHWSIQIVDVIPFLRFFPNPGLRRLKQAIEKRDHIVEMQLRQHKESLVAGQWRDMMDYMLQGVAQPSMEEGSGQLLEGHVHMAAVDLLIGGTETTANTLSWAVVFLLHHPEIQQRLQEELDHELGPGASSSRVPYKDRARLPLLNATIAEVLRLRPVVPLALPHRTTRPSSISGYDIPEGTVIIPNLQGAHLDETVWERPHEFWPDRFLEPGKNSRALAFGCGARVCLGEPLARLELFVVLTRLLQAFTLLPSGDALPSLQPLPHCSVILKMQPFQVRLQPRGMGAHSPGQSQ

SMILES | pIC50 [1] | inhibition at 0.01 µM [2] | half-life at 1 µM [3] | half-life at 1 µM [4] | inhibition at 1 h, 0.1 µM (CYP11B) | inhibition at 20 h [5]
COc1cncc(C2=CC[C@H]3[C@@H]4CCC5=CC(=O)N(C)CC[C@]5(C)[C@H]4CC[C@]23C)c1 | ≥ 7.96 | 50 to 80% | 1 to 10 min | 1 to 10 min | < 32% | 
CN1CC=C2CC[C@@H]3[C@H](CC[C@]4(C)C(n5ccnc5)=CC[C@@H]34)[C@@]2(C)CC1 |  | 1 to 50% |  |  | < 32% | 
CC(=O)N1CCC[C@@]2(C)[C@@H](CC[C@@H]3[C@@H]2CC[C@]2(C)C(n4ccnc4)=CC[C@@H]32)C1 |  |  |  |  | ≥ 50% | 10 to 50%
CN1C(=O)CC[C@@]2(C)C1=CC[C@@H]1[C@@H]2CC[C@]2(C)C(n3cncc3C#N)=CC[C@@H]12 |  |  |  |  | < 32% | < 10%
C[C@]12CCCN(S(C)(=O)=O)CC1CC[C@@H]1[C@@H]2CC[C@]2(C)C(n3ccnc3)=CC[C@@H]12 (stereo not given in full) |  |  |  |  | ≥ 50% | 
CCCC(=O)N1CCC2CC[C@@H]3[C@H](CC[C@]4(C)C(n5ccnc5)=CC[C@@H]34)[C@@]2(C)CC1 (stereo not given in full) | ≥ 7.96 |  |  |  | < 32% | ≥ 50%
Cc1cncc(C2=CC[C@H]3[C@@H]4CC=C5N(C)C(=O)C[C@]5(C)[C@H]4CC[C@]23C)c1 |  |  |  |  | < 32% | 10 to 50%
C[C@]12CC[C@H](O)CC1=CC[C@@H]1[C@@H]2CC[C@]2(C)C(n3cncc3C#N)=CC[C@@H]12 |  |  |  |  | ≥ 50% | 10 to 50%
Cc1cncc(C2=CC[C@H]3[C@@H]4CC=C5N(C)C(=O)CCC[C@]5(C)[C@H]4CC[C@]23C)c1 |  | 50 to 80% |  |  | ≥ 50% | 
COc1cncc(C2CC[C@H]3[C@@H]4CCC5=CC(=O)NCC[C@]5(C)[C@H]4CC[C@]23C)c1 (stereo not given in full) | ≥ 7.96 | ≥ 80% | 10 to 60 min | 10 to 60 min | < 32% | 
CN1C(=O)CC[C@@]2(C)C1=CC[C@@H]1[C@@H]2CC[C@]2(C)C(n3ccnc3)=CC[C@@H]12 |  | 50 to 80% |  |  | ≥ 50% | 
C[C@]12CC[C@@H](NC(=O)C3CC3)CC1=CC[C@@H]1[C@@H]2CC[C@]2(C)C(n3ccnc3)=CC[C@@H]12 | ≥ 7.96 |  |  | 1 to 50 min | ≥ 50% | ≥ 50%
CN1C(=O)C[C@@]2(C)C1=CC[C@@H]1[C@@H]2CC[C@]2(C)C(c3cccnc3)=CC[C@@H]12 | ≥ 7.96 |  |  |  | ≥ 50% | ≥ 50%
COc1cncc(C2=CC[C@H]3[C@@H]4CC=C5N(C)C(=O)CCC[C@]5(C)[C@H]4CC[C@]23C)c1 |  | ≥ 80% |  | 1 to 50 min | ≥ 50% | 
C[C@]12CC[C@H]3[C@@H](CC=C4C[C@H](NC(=O)C5CC5)CC[C@@]43C)C1=CC=C2n1ccnc1 |  |  |  |  | ≥ 50% | 10 to 50%
CC(=O)N[C@@H]1CC[C@@]2(C)C(=CC[C@H]3C4=CC=C(n5ccnc5)[C@@]4(C)CC[C@@H]32)C1 |  |  |  |  | < 32% | 10 to 50%
CN1C(=O)CCC[C@@]2(C)C1=CC[C@@H]1[C@@H]2CC[C@]2(C)C(c3cccnc3)=CC[C@@H]12 | ≥ 7.96 | ≥ 80% |  | 1 to 50 min | ≥ 50% | 
CCOc1cncc(C2=CC[C@H]3[C@@H]4CC=C5N(C)C(=O)C[C@]5(C)[C@H]4CC[C@]23C)c1 |  |  |  |  | ≥ 50% | 10 to 50%
CCC(=O)N1CCC[C@@]2(C)C(CC[C@@H]3[C@@H]2CC[C@]2(C)C(c4cccnc4)=CC[C@@H]32)C1 (stereo not given in full) | ≥ 7.96 |  |  |  | ≥ 50% | 10 to 50%
CCC(=O)N1CCC2CC[C@@H]3[C@H](CC[C@]4(C)C(c5cccnc5)=CC[C@@H]34)[C@@]2(C)CC1 (stereo not given in full) | ≥ 7.96 |  |  |  | < 32% | 10 to 50%
CN1CC[C@@]2(C)C(=CC1=O)CC[C@@H]1[C@@H]2CC[C@]2(C)C(n3ccnc3)=CC[C@@H]12 | ≥ 7.96 | ≥ 80% | 10 to 60 min | 1 to 50 min | ≥ 50% | 
COC(=O)N[C@@H]1CC[C@@]2(C)C(=CC[C@@H]3[C@@H]2CC[C@]2(C)C(n4ccnc4)=CC[C@@H]32)C1 | ≥ 7.96 |  |  |  | < 32% | ≥ 50%
C[C@]12CCCCC1C(=O)C[C@@H]1[C@@H]2CC[C@]2(C)C(n3ccnc3)=CC[C@@H]12 (stereo not given in full) | ≥ 7.96 | ≥ 80% |  |  | < 32% | 
CN1C(=O)C[C@@]2(C)C1=CC[C@@H]1[C@@H]2CC[C@]2(C)C(n3ccnc3)=CC[C@@H]12 |  |  |  |  | ≥ 50% | 10 to 50%
CN1C(=O)CC[C@@]2(C)C1=CC[C@@H]1[C@@H]2CC[C@]2(C)C(c3cncc(F)c3)=CC[C@@H]12 |  |  |  |  | ≥ 50% | 10 to 50%
CC(=O)O[C@H]1CC[C@@]2(C)C(=CC[C@H]3C4=CC=C(c5cccnc5)[C@@]4(C)CC[C@@H]32)C1 |  | 1 to 50% |  |  | ≥ 50% | 
COc1cncc(C2=CC[C@H]3[C@@H]4CC=C5N(C)C(=O)C[C@]5(C)[C@H]4CC[C@]23C)c1 | ≥ 7.96 |  |  | 1 to 50 min | < 32% | ≥ 50%
